Measured values: PMC10591299, “Targeting SHP2 with an Active Site Inhibitor Blocks Signaling and Breast Cancer Cell Phenotypes” (ACS Bio & Med Chem Au, 2023)
pIC50: −log10 of the molar value. Where two headings read alike, the source gives them in different places.

Key:
PTP1B = target: T1, PTP1B (Homo sapiens, UniProt P18031); assay: PTPase assay, GST-fusion PTP domain of PTP1B, DiFMUP substrate; format: biochemical
T1 construct: The GST fusion PTP domains of SHP1 and PTP1B were expressed and purified in a fashion similar to that of SHP2; GST; made in house
T1 sequence (P18031 3-277 limits assumed): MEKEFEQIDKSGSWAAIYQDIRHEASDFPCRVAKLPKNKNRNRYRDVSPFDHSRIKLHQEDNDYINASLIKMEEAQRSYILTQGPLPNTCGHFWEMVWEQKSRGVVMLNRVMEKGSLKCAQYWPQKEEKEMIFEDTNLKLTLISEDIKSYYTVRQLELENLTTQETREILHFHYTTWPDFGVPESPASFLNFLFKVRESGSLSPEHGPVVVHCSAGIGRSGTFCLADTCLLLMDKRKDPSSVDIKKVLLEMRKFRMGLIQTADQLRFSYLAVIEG
Procedure: After completion of synthesis, both CNBCA and CNBBA were purified on silica gel, and purity was determined by HPLC. The purified compounds were then tested for their effect on the SHP2 enzyme activity and on the activity of the selected control PTPs (SHP1 and PTP1B) by the phosphotyrosyl phosphatase (PTPase) assay as described previously.[30],[31] First, the GST fusion of the PTP domains of SHP2, SHP1, and PTP1B were produced and purified as reported by us previously.[32] The reactions were performed in a buffer containing 10 mM Tris-HCl (pH 7.2), 100 mM NaCl, 1 mM EDTA, 1 mM dithiothreitol (DTT), and 0.01% Tween-20. […] The complete mixture was incubated at 37 °C for 20 min, and fluorescence intensity was measured by the Synergy 4 plate reader at the excitation and emission wavelengths of 360 and 460 nm, respectively. The half inhibitory concentration (IC50) value of each compound was calculated and plotted using Graphpad Prism software. […]
We used the PTPase assay described previously[30],[31] to evaluate the effect of the newly synthesized compounds on the enzymatic activity of SHP2, SHP1, and PTP1B. […] The mixtures were incubated at 37 °C for 20 min and transferred to 96 well plates, and the fluorescence intensity was measured by a Synergy 4 plate reader at the excitation and emission wavelengths of 360 and 460 nm, respectively. […]

BT474 cells [1] = assay: Basal pAkt and pERK1/2 signaling by immunoblotting in BT474 cells; format: cell-based; settings: Homo sapiens, BT-474
Procedure: Since SHP2 is an essential mediator of mitogenic and cell survival signaling in breast cancer cells, we determined the effect of CNBCA treatment on activation of ERK1/2 and Akt in the HER2-positive BT474 and in the triple-negative MDA-MB468 cell lines. Cells growing in 2D culture were treated with varying concentrations of CNBCA, ranging from 0.250 to 2.0 μM, for 48 h, and total cell lysates were analyzed by immunoblotting (IB) with antibodies that recognize the activated forms of ERK1/2 (pERK1/2) and Akt (pAkt).

BT474 cells [2] = assay: Cell growth in 2D culture, BT474; format: cell-based; settings: BT474, 500 nM, 72 h; vehicle treated cells grew to confluency
Procedure: (§1) Since SHP2 is essential for the growth and transformation of BC cells,[8],[9],[11] we determined the effect of SHP2 inhibition with CNBCA in 2D and 3D culture systems. For the effect on cell growth, BC cells (BT474 and MDA-MB468) were seeded in 2D culture and treated with a single concentration of CNBCA (500 nM), the concentration that provided a 50% inhibition of SHP2 mediated signaling in BT474 cells. Images were collected at the start and every 24 h for a total of 72 h (3 days). […] For effect on anchorage independent growth, approximately 10^6 cells were seeded in soft agar as described previously,[24] and treated with CNBCA at 500 nM concentration for 10 days with refeeding and adjustment of compound concentration. […] Finally, the effect of CNBCA on cancer stem cell properties was determined by the suspension assay, in which only cells with stem-like properties only can grow and form mammospheres.[7],[24],[36] Approximately 10^6 cells were seeded in nonadherent 6 cm plates and treated with CNBCA (500 nM) for 10 days with complementation of media and drug concentration.

MDA-MB468 cells = assay: Colony formation in soft agar, MDA-MB468; format: cell-based; settings: MDA-MB468, 500 nM, 10 days, versus vehicle
Procedure: as §1
For colony formation studies, we used the soft agar assay, which keeps cells anchorage independently, allowing determination on the transformation phenotype of cancer cells, including breast cancer cells.[11],[35] For this assay, we first prepared a 5% stock suspension in PBS by boiling it in a microwave. […]

pIC50 (PTP1B; PTP domain, 1 nM enzyme, 10 μM DiFMUP): 4.60 | selectivity ratio PTP1B versus SHP2 (PTP1B; SHP2 IC50 as reference): 28.73 fold | pIC50 (BT474 cells [1]; BT474, 48 h treatment, band density pAkt and pERK1/2, read-out: IC50 for SHP2 mediated Akt and ERK1/2 activation): ~6.00 | pIC50 (BT474 cells [1]; BT474 cells, read-out: concentration that provided a 50% inhibition of SHP2 mediated signaling): 6.30
SMILES: CCCCCCCCCOc1ccc(-c2ccc(C(=O)O)cc2)cc1CCCC(=O)O [CNBCA, 3′-(3-carboxypropyl)-4′-(nonyloxy)-[1,1′-biphenyl]-4-carboxylic acid]
cell growth in 2D culture (BT474 cells [2]): half-confluent | colony formation in soft agar (MDA-MB468 cells): fewer and smaller colonies
